Measurements reported in US11161856B2 (H. Lundbeck A/S, priority 2017, dated 2021).

Key:
MGLL = target: T1, MGLL (Mus musculus, UniProt O35678); assay: In vitro competitive activity-based protein profiling, mouse brain proteome (MGLL); assay type: biochemical; design: IC50 MGLL Brain (Mouse, μM): scale not given here; conditions: for % Inh MGLL Brain (Mouse, μM): concentration not given (μM)
T1 construct: Brain; from tissue; host or cells: mouse brain proteome
T1 sequence (O35678 1-303): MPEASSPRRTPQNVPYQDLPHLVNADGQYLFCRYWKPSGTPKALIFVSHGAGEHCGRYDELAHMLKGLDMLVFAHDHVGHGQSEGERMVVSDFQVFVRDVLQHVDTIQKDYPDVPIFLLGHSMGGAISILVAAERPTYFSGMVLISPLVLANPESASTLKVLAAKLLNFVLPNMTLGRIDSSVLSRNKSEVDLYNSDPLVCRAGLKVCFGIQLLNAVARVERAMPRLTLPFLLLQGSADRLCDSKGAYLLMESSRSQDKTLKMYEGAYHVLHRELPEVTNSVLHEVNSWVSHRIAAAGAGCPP

ABHD6 = target: T2, ABHD6 (Mus musculus, UniProt Q8R2Y0); assay: In vitro competitive activity-based protein profiling, mouse brain proteome (ABHD6); assay type: biochemical; conditions: mouse brain proteome; concentration not given (μM)
T2 construct: Brain; from tissue; host or cells: mouse brain proteome
T2 sequence (Q8R2Y0 1-336): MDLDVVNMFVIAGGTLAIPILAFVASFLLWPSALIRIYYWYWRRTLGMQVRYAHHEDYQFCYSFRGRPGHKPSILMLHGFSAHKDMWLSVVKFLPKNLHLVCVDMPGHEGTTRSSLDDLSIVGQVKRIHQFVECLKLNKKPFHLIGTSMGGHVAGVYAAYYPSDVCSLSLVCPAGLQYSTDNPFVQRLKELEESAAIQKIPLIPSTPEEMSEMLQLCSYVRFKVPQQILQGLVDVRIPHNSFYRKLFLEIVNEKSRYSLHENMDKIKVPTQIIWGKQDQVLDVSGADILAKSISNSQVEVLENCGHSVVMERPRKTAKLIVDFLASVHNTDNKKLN
Method: [The source words this procedure for another target and reports this target under the same test.] In Vitro Competitive Activity-Based Protein Profiling.
Proteomes (human prefrontal cortex or cell membrane fractions) (50 μL, 1.0 mg/mL total protein concentration) were preincubated with varying concentrations of inhibitors at 37° C. After 30 min, FP-Rh or HT-01 (1.0 μL, 50 μM in DMSO) was added and the mixture was incubated for another 30 min at room temperature. Reactions were quenched with SDS loading buffer (15 μL-4×) and run on SDS-PAGE.

SMILES	% Inh MGLL Brain (Mouse, μM) (MGLL)	% Inh ABHD6 Brain (Mouse, μM) (ABHD6)	IC50 MGLL Brain (Mouse, μM) (MGLL)
O=C(OC(C(F)(F)F)C(F)(F)F)N1CCC2(CC1)CN(Cc1c(Cl)cccc1N1CCC(F)CC1)C2 [Example 47, 1,1,1,3,3,3-Hexafluoropropan-2-yl 2-(2-chloro-6-(4-fluoropiperidin-1-yl)benzyl)-2,7-diazaspiro[3.5]nonane-7-carboxylate]	### (### is ≥75%)	### (### is ≥75%)	
CCN1CC2(CCN(c3cc(Cl)cc(CN4CCCC45CN(C(=O)OC(C(F)(F)F)C(F)(F)F)C5)c3)CC2)C1 [Example 241, 1,1,1,3,3,3-Hexafluoropropan-2-yl 5-(3-chloro-5-(2-ethyl-2,7-diazaspiro[3,5]nonan-7-yl)benzyl)-2,5-diazaspiro[3,4]octane-2-carboxylate]	# (# is ≤25%)	# (# is ≤25%)	
O=C(OC(C(F)(F)F)C(F)(F)F)N1CCC2(CC1)CN(Cc1c(Cl)cccc1N1CCCCC1)C2 [Example 45, 1,1,1,3,3,3-Hexafluoropropan-2-yl 2-(2-chloro-6-(piperidin-1-yl)benzyl)-2,7-diazaspiro[3,5]nonane-7-carboxylate]	### (### is ≥75%)	### (### is ≥75%)	
CC(=O)N1CCC2(CC1)CCN(c1cc(Cl)ccc1CN1CCN(C(=O)OC(C(F)(F)F)C(F)(F)F)CC1)C2 [Example 29, 1,1,1,3,3,3-Hexafluoropropan-2-yl 4-(2-(8-acetyl-2,8-diazaspiro[4.5]decan-2-yl)-4-chlorobenzyl)piperazine-1-carboxylate]	### (### is ≥75%)	# (# is ≤25%)	* * *
CS(=O)(=O)N1CCc2cccc(CN3CCC4(CC3)CCN(C(=O)OC(C(F)(F)F)C(F)(F)F)C4)c2C1 [Example 217, 1,1,1,3,3,3-Hexafluoropropan-2-yl 8-((2-(methylsulfonyl)-1,2,3,4-tetrahydroisoquinolin-8-yl)methyl)-2,8-diazaspiro[4.5]decane-2-carboxylate]	### (### is ≥75%)	### (### is ≥75%)	
O=C(OC(C(F)(F)F)C(F)(F)F)N1CCC2(CC1)CN(Cc1ccc(C(F)(F)F)cc1N1CCCC1)C2 [Example 151, 1,1,1,3,3,3-Hexafluoropropan-2-yl 2-(2-(pyrrolidin-1-yl)-4-(trifluoromethyl)benzyl)-2,7-diazaspiro[3.5]nonane-7-carboxylate]	### (### is ≥75%)	### (### is ≥75%)	
CC(=O)N1CC2(CCN(c3cc(C(F)(F)F)ccc3CN3CCN(C(=O)OC(C(F)(F)F)C(F)(F)F)CC3)CC2)C1 [Example 216, 1,1,1,3,3,3-Hexafluoropropan-2-yl 4-(2-(2-acetyl-2,7-diazaspiro[3.5]nonan-7-yl)-4-(trifluoromethyl)benzyl) piperazine-1-carboxylate]	### (### is ≥75%)	## (## is between 25 and 75%)	
CC(=O)N1CC2(CCN(c3cc(Cl)cc(CN4CCCC45CN(C(=O)OC(C(F)(F)F)C(F)(F)F)C5)c3)CC2)C1 [Example 238, 1,1,1,3,3,3-Hexafluoropropan-2-yl 5-(3-(2-acetyl-2,7-diazaspiro[3.5]nonan-7-yl)-5-chlorobenzyl)-2,5- .diazaspiro[3.4]octane-2-carboxylate]	### (### is ≥75%)	### (### is ≥75%)	
CN(Cc1cc(N2CCCC2)cc(C(F)(F)F)c1)C1(C)CCN(C(=O)OC(C(F)(F)F)C(F)(F)F)CC1 [Example 76, 1,1,1,3,3,3-Hexafluoropropan-2-yl 4-methyl-4-(methyl(3-(pyrrolidin-1-yl)-5-(trifluoromethyl)bcnzyl)amino) piperidine-1-carboxylate]	### (### is ≥75%)	# (# is ≤25%)	
